According to patent publication US20120004297A1, “Agent for alleviating vascular failure” (Naoki HIGASHI, priority 2005, published 2012):

Legend:
[1] = system: Vascular endothelial cells (GM07373A); assay: Fluorescent intensity of vascular endothelial cells injured by hydrogen peroxide plus glucose, 24-wells plate, graphic analysis software method; format: cell-based, cattle; details: for Fluorescent intensity compared with the hydrogen peroxide plus glucose added system: sample further added to hydrogen peroxide plus glucose
Protocol: Vascular endothelial cells (GM07373A) subcultured with 10% FBS added EMEM were separated with a trypsin-EDTA solution. To 1.5 ml of the solution of the cells floated on 10% FBS added EMEM was added 9 ml of 10% FBS added EMEM and the resultant mixture was placed in a laboratory dish having a diameter of 9 cm and pre-cultivation was conducted at 37° C. for 3-4 days under an atmosphere of 5% carbon dioxide. Vascular endothelial cells in the culture broth were separated with a trypsin-EDTA solution and floated on 10% FBS added EMEM. 1 ml of the floated cell solution (number of cell: 0.7-0.9×10^5 cell/ml) was poured into each well of 24-wells plate and the main cultivation was conducted at 37° C. for 2 days under an atmosphere of 5% carbon dioxide. After removal of the culture medium, 0.4% FBS added EMEM was added in an amount of 500 μl per well to make the cells in starved state and cultivation was conducted at 37° C. over a night under an atmosphere of 5% carbon dioxide. A sample solution and 10 μl of an aqueous glucose solution (200 mg/ml) were added and cultivation was conducted at 37° C. for 2 hours under an atmosphere of 5% carbon dioxide. After removal of the culture medium, A Hanks' solution (a product of Nihon Pharmaceutical Co., Ltd.) was added to the wells in the amount of 1 ml per well for twice washing. After removal of the solution, a dye solution containing hydrogen peroxide (or a dye solution not containing hydrogen peroxide) was added in the amount of 300 μl per well and cultivation was conducted at 37° C. for 30 minutes under an atmosphere of 5% carbon dioxide. The dye solution was removed to measure the fluorescent intensity of the cell.
GM07373A is a cattle's aortic vascular endothelial cell strain, “Repository No. GM07373A” purchased from Coriel Human Genetic Cell Repository in U.S.A. The dye solution containing hydrogen peroxide was prepared by mixing 50 μg of the solution of fluorescent pigment (“C-6827”, a product of Molecular Probe Company) dissolved in 90 μl of DMSO with 9 ml of the Hanks' solution and adding 90 μl of 0.3% hydrogen peroxide thereto. Hydrogen peroxide was not added for the control test.
As a sample solution, there were used methanol solutions of astaxanthin (a product of Sigma Company) in 0.053 mg/ml and 0.0053 mg/ml, methanol solutions of α-tocopherol (a product of Wako Pure Chemical Industries, Ltd.) in 0.25 mg/ml and 0.025 mg/ml and methanol solutions of tocotrienol (a product of Sigma Company) in 0.25 mg/ml and 0.025 mg/ml. 10 μl of each of the sample solution was added to 500 μl of the culture medium.
The fluorescent intensity was measured at the optional three places under 100 times magnifications using a Leica stereoscopic fluorescence microscope “MZ FL III” (having a Leica macro fluorescence apparatus having a “GFP” attachment) and a filter set (name): GEP Plant fluorescence (GFP2) (excitation filter: 480/40 nm, absorption filter: 510 nm). Each of the pictures was captured by a CDD camera and converted into gray intensity % to measure the fluorescent intensity. The fluorescent intensity was measured for three places per well and the average value was calculated. Also, 3-4 wells were prepared for each kind of sample.
The system where astaxanthin has added is one where astaxanthin in addition to hydrogen peroxide plus glucose was added. The period of time for pre-cultivation was […] and the number of cells was 0.84×10^5 cell per well.
The tocotrienol or α-tocopherol added system is one where tocotrienol or α-tocopherol in addition to hydrogen peroxide plus glucose was added. The period of time for pre-cultivation was 3 days and the number of cells was 0.89×10^5 cell per well.

[2] = cited from earlier work
[3] = specimen 0.5 μg/ml added in addition to hydrogen peroxide plus glucose
[4] = specimen 5.0 μg/ml added in addition to hydrogen peroxide plus glucose

Row | Molecule | Fluorescent intensity compared with the hydrogen peroxide plus glucose added system [1] | Fluorescent intensity (%) [1, 3] [%] | Fluorescent intensity (%) [1, 4] [%] | Antioxidative action, times as strong as tocopherol ([2]; relative to tocopherol) | Antioxidative action, times as strong as vitamin E ([2]; relative to vitamin E) | Antioxidative action, times as strong as β-carotene ([2]; relative to β-carotene) | Fluorescent intensity (%) ([1]; astaxanthin 0.104 μg/ml added in addition to hydrogen peroxide plus glucose) | Fluorescent intensity (%) ([1]; astaxanthin 1.04 μg/ml added in addition to hydrogen peroxide plus glucose)
1 | Cc1c(C)c2c(c(C)c1O)CC[C@@](C)(CCC[C@H](C)CCC[C@H](C)CCCC(C)C)O2 [α-Tocopherol, α-tocopherol] | less fluorescent intensity than the hydrogen peroxide plus glucose added system | 4.74 | 4.32 | – | – | – | – | –
2 | tocotrienol [Tocotorienol] | less fluorescent intensity than the hydrogen peroxide plus glucose added system | 4.35 | 4.40 | about 50 times | – | – | – | –
3 | CC1=C(/C=C/C(C)=C/C=C/C(C)=C/C=C/C=C(C)/C=C/C=C(C)/C=C/C2=C(C)C(=O)C(O)CC2(C)C)C(C)(C)CC(O)C1=O (stereo not drawn) [Astaxanthin, 3,3′-dihydroxy-β,β-carotene-4,4′-dione] | less fluorescent intensity than the hydrogen peroxide plus glucose added system | – | – | – | about 1000 times | about 40 times | 2.55 | 1.93
